Patent US10098870B2 (JENKEM TECHNOLOGY CO., LTD. (BEIJING), priority 2013, dated 2018)
Values joined by “and” are separate entries in the source; they are usually repeats but may differ in a detail not shown here. Identical values can stand only once. “Also recorded” adds a separate entry of the source. Like-named read-outs stand apart in the source and are kept apart here.

Key:
[1] = tested on: Calu-6 human lung cancer cell; assay: Anti-tumor effect on xenograft tumor model of Calu-6 in nude mice (Example 9); conditions: for T/C (%) RTV / T/C (%) TW: vs physiological saline; for RTV / Tumor weight: 42nd day, Mean ± SEM; for Tumor volume: mean ± SE;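 for all read-outs here: each nude mouse received 5.0×10^6 Calu-6 cells implanted at the right shoulder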
Description: Calu-6 cells were cultured with a monolayer in vitro in MEM medium supplied with heat-inactivated fetal bovine serum with a volume ratio of 10%, and an incubator at 37° C. with the air containing CO2 with a proportion of 5%. The tumor cells were passaged with digestion by trypsin-EDTA twice a week. The cells in the exponential growth phase were collected, counted, and used for inoculation.
5.0×10^6 of Calu-6 tumor cells were suspended in 0.1 ml of PBS, inoculated to each nude mouse at the right shoulder, and there were totally 34 mice inoculated.

[2] = tested on: H460 human non-small cell lung cancer cells; conditions: for T/C (%) RTV / T/C (%) TW: vs physiological saline; for RTV / Tumor weight: 29th day, Mean ± SEM; for Tumor volume: mean ± SE
Description: (§1) The tumor cells were passaged with digestion by trypsin-EDTA twice a week. The cells in the exponential growth phase were collected, counted, and used for inoculation.
5.0×10^6 of H460 tumor cells were suspended in 0.1 ml of PBS, inoculated to each nude mouse at the right shoulder, and there were totally 34 mice inoculated. 8 days later the mean tumor volume was desired to reach about 143 mm^3, the mice with a smaller or larger tumor were removed and the remaining 24 mice were divided into groups randomly according to tumor volume and administrated.

[3] = tested on: human hepatoma cell Hep3B; assay: Anti-tumor effect on xenograft tumor model of Hep3B in immune deficiency mice (Example 7); conditions: for T/C (%) RTV / T/C (%) TW: vs physiological saline; for RTV / Tumor weight: 44th day, Mean ± SEM; for Tumor volume: mean ± SE
Excerpt: as §1

## monomethoxy polyethylene glycol (20K)-glutamic acid dipeptide-rapamycin conjugate [LPR-2]
[1]; 30 mg/kg i.v. BIW×4W
  TGD (to 1,000 mm^3): >8
  T/C (%) RTV: 31%
  T/C (%) TW: 28%
  RTV: 4.39 ± 0.59
  Tumor weight: 449 ± 89 mg
[1]; 45 mg/kg i.v. QW×4W
  TGD (to 1,000 mm^3): >8
  T/C (%) RTV: 38%
  T/C (%) TW: 37%
  RTV: 5.41 ± 0.51
  Tumor weight: 602 ± 83 mg
[1]; day 14 after inoculation, 30 mg/kg i.v. BIW×4W
  Tumor volume: 139 ± 18 mm^3
[1]; day 14 after inoculation, 45 mg/kg i.v. QW×4W
  Tumor volume: 137 ± 22 mm^3
[1]; day 17 after inoculation, 30 mg/kg i.v. BIW×4W
  Tumor volume: 160 ± 25 mm^3
[1]; day 17 after inoculation, 45 mg/kg i.v. QW×4W
  Tumor volume: 152 ± 25 mm^3
[1]; day 21 after inoculation, 30 mg/kg i.v. BIW×4W
  Tumor volume: 201 ± 40 mm^3
[1]; day 21 after inoculation, 45 mg/kg i.v. QW×4W
  Tumor volume: 204 ± 38 mm^3
[1]; day 24 after inoculation, 30 mg/kg i.v. BIW×4W
  Tumor volume: 241 ± 50 mm^3
[1]; day 24 after inoculation, 45 mg/kg i.v. QW×4W
  Tumor volume: 245 ± 40 mm^3
[1]; day 28 after inoculation, 30 mg/kg i.v. BIW×4W
  Tumor volume: 274 ± 57 mm^3
[1]; day 28 after inoculation, 45 mg/kg i.v. QW×4W
  Tumor volume: 293 ± 44 mm^3
[1]; day 31 after inoculation, 30 mg/kg i.v. BIW×4W
  Tumor volume: 335 ± 76 mm^3
[1]; day 31 after inoculation, 45 mg/kg i.v. QW×4W
  Tumor volume: 323 ± 45 mm^3
[1]; day 35 after inoculation, 30 mg/kg i.v. BIW×4W
  Tumor volume: 422 ± 108 mm^3
[1]; day 35 after inoculation, 45 mg/kg i.v. QW×4W
  Tumor volume: 436 ± 74 mm^3
[1]; day 38 after inoculation, 30 mg/kg i.v. BIW×4W
  Tumor volume: 504 ± 119 mm^3
[1]; day 38 after inoculation, 45 mg/kg i.v. QW×4W
  Tumor volume: 518 ± 87 mm^3
[1]; day 42 after inoculation, 30 mg/kg i.v. BIW×4W, 30 mg/kg
  Tumor volume: 627 ± 145 mm^3
[1]; day 42 after inoculation, 45 mg/kg i.v. QW×4W, 45 mg/kg
  Tumor volume: 720 ± 106 mm^3
[2]; 30 mg/kg i.v. BIW×3W
  TGD (to 1,000 mm^3): >9
  T/C (%) RTV: 22%
  T/C (%) TW: 23%
  RTV: 3.43 ± 0.32
  Tumor weight: 364 ± 54 mg
[2]; 45 mg/kg i.v. QW×3W
  TGD (to 1,000 mm^3): >9
  T/C (%) RTV: 25%
  T/C (%) TW: 25%
  RTV: 3.86 ± 0.42
  Tumor weight: 406 ± 60 mg
[2]; day 8 after inoculation, 30 mg/kg i.v. BIW×3W
  Tumor volume: 143 ± 16 mm^3
[2]; day 8 after inoculation, 45 mg/kg i.v. QW×3W
  Tumor volume: 143 ± 18 mm^3
[2]; day 12 after inoculation, 30 mg/kg i.v. BIW×3W
  Tumor volume: 213 ± 40 mm^3
[2]; day 12 after inoculation, 45 mg/kg i.v. QW×3W
  Tumor volume: 194 ± 33 mm^3
[2]; day 15 after inoculation, 30 mg/kg i.v. BIW×3W
  Tumor volume: 208 ± 44 mm^3
[2]; day 15 after inoculation, 45 mg/kg i.v. QW×3W
  Tumor volume: 260 ± 46 mm^3
[2]; day 19 after inoculation, 30 mg/kg i.v. BIW×3W
  Tumor volume: 259 ± 50 mm^3
[2]; day 19 after inoculation, 45 mg/kg i.v. QW×3W
  Tumor volume: 282 ± 46 mm^3
[2]; day 22 after inoculation, 30 mg/kg i.v. BIW×3W
  Tumor volume: 343 ± 67 mm^3
[2]; day 22 after inoculation, 45 mg/kg i.v. QW×3W
  Tumor volume: 346 ± 53 mm^3
[2]; day 26 after inoculation, 30 mg/kg i.v. BIW×3W
  Tumor volume: 459 ± 70 mm^3
[2]; day 26 after inoculation, 45 mg/kg i.v. QW×3W
  Tumor volume: 468 ± 57 mm^3
[2]; day 29 after inoculation, 30 mg/kg i.v. BIW×3W, 30 mg/kg
  Tumor volume: 505 mm^3 and 505 ± 87 mm^3
[2]; day 29 after inoculation, 45 mg/kg i.v. QW×3W, 45 mg/kg
  Tumor volume: 549 mm^3 and 549 ± 76 mm^3
[3]; 30 mg/kg i.v. BIW×4W
  TGD (to 1,000 mm^3): 17
  T/C (%) RTV: 54%
  T/C (%) TW: 46%
  RTV: 2.43 ± 0.19
  Tumor weight: 720 ± 94 mg
[3]; 45 mg/kg i.v. QW×4W
  TGD (to 1,000 mm^3): >17
  T/C (%) RTV: 42%
  T/C (%) TW: 40%
  RTV: 1.85 ± 0.17
  Tumor weight: 625 ± 84 mg
[3]; 5-FU 15 mg/kg, LPR-2 30 and 45 mg/kg
  anti-tumor effect (in words): slightly better than that of the 5-FU; also recorded: a common anti-tumor effect
[3]; day 16 after inoculation, 30 mg/kg i.v. BIW×4W
  Tumor volume: 454 ± 60 mm^3
[3]; day 16 after inoculation, 45 mg/kg i.v. QW×4W
  Tumor volume: 453 ± 56 mm^3
[3]; day 20 after inoculation, 30 mg/kg i.v. BIW×4W
  Tumor volume: 524 ± 47 mm^3
[3]; day 20 after inoculation, 45 mg/kg i.v. QW×4W
  Tumor volume: 490 ± 73 mm^3
[3]; day 23 after inoculation, 30 mg/kg i.v. BIW×4W
  Tumor volume: 622 ± 37 mm^3
[3]; day 23 after inoculation, 45 mg/kg i.v. QW×4W
  Tumor volume: 549 ± 83 mm^3
[3]; day 27 after inoculation, 30 mg/kg i.v. BIW×4W
  Tumor volume: 643 ± 45 mm^3
[3]; day 27 after inoculation, 45 mg/kg i.v. QW×4W
  Tumor volume: 589 ± 91 mm^3
